Test results from US20080319001A1, “Cancer Treatment Using Specific 3,6,9-Substituted Acridines” (priority 2005, published 2008).

How the values were obtained:
DU145 xenografts = assay: DU145 xenograft efficacy study; format: in vivo, mouse
Method: The mouse was selected because it is a rodent species and is internationally accepted as the species of choice for human xenograft studies. The nu/nu MF1 strain was selected.
A high dose level of 1 mg/kg given once daily for 10 days was selected for this study. Low and intermediate dose levels of 0.3 and 0.6 mg/kg/day were also selected to aid characterisation of the dose-response profile.
The test articles were reconstituted in 0.9% physiological saline B.P. to the required final concentrations; and where necessary, an organic solvent (e.g. DMSO or ethanol) was used to aid solubilisation of some materials.
Treated mice received a bolus intravenous injection of the test formulation once daily for two weeks (week-days only). A dose-volume of […] bodyweight was be used. Control mice were untreated.
A total of 175 female MF1 mice were obtained from the Biological Research Facility, SGHMS, London. Animals were in a weight range of 26-30 g (6 to 8 weeks of age). Mice were individually identified using a subcutaneously implanted microchip.
The xenografts were prepared from the DU145 cell line (ATCC HTB-81). Cells were grown in accordance with established methodology for this cell line to provide 5×10^6 cells per mouse.
Xenografts were established in the MF1 mice by subcutaneous injection into the right flank of each mouse (5×10^6 cells in […] phosphate buffered saline).
Animals were checked regularly until visible tumours appeared. Tumours were then measured in accordance with the relevant SOP three times per week and tumour volume calculated using the formula: […]
Measurements commenced approximately one week before the day of treatment (Day 0) when the xenograft reached an approximate volume of 0.05 cm^3 (e.g. dimensions of approximately 5×5×4 mm).
Once the tumours were established, mice were allocated into groups of 5 mice using a randomization procedure based on stratified xenograft volume.
Day 0 is defined as the day on which the average tumour volume is between 0.12 to 0.16 cm^3. Relative tumour volume on Day 0 is defined as 1.
Each mouse was observed and tumours measured until the xenografts tripled in volume (3Vo) compared with volume on the day of treatment (Vo). The elapsed period was the volume tripling time (VTT).

A549-derived xenografts = assay: A549 xenograft combination study; format: in vivo, mouse; settings: single agent (AS1410 1 mg/kg or cisplatin 6 mg/kg), after approximately 60 days
Method: AS1410 was reconstituted in 0.9% saline B.P. to the required final concentration (0.331 and 0.0993) mg/ml of AS1410 succinate salt for intravenous administration).
The xenografts were prepared from the lung carcinoma A549 (ATCC Number CCL-185). Cells were grown in accordance with standard operating procedures and established methodology for this cell line to provide 5×10^6 cells per mouse.
A549-derived xenografts were established in 50 female nu/nu MF1 mice respectively by subcutaneous injection into the right flank of each mouse (5×10^6 cells in 100 μl phosphate buffered saline).
Animals were checked regularly until visible tumours appeared. Tumours were then measured in accordance with the relevant SOP regularly and tumour volume calculated using the formula: […]
Once the tumours were established, the mice were allocated into groups of 9 mice using a randomization procedure based on stratified xenograft volume.
Day 0 is defined as the day on which the average tumour volume is between 0.04 to 0.1 cm^3. Relative tumour volume on Day 0 is defined as 1.
Each mouse was observed and tumours measured until the xenografts tripled (3V0) in volume compared with volume on the day of treatment (V0). The elapsed period is the volume tripling time (VTT).
AS1410 was given by slow bolus intravenous injection. For AS1410 a dose volume 5 μl/g bodyweight was used. Control mice were untreated. […]

[1] = Metabolic stability, cytosol; format: in vitro ADME
human telomerase = settings: Read et al. 2001; Harrison et al. 2003; Schultes et al. 2004; cited from earlier work
tumour cell line = settings: Incles et al, 2004; cited from earlier work

Compound | T-C value (DU145 xenografts; 0.3 mg/kg/day iv) | T-C value (DU145 xenografts; 0.6 mg/kg/day iv) | T-C value (DU145 xenografts; 1 mg/kg/day iv) | xenograft response (DU145 xenografts; 0.3, 0.6 and 1.0 mg/kg/day iv, compared with BSG01) | relative tumour volume (A549-derived xenografts) | Cytosol (t = 30) ([1]; t = 30) | Cytosol (t = 60) ([1]; t = 60) | in vitro inhibitory activity against human telomerase (human telomerase) | end-to-end fusions in chromosomes (tumour cell line)
O=C(CCN1CCCC1)Nc1ccc2c(NCc3ccc(F)c(F)c3)c3ccc(NC(=O)CCN4CCCC4)cc3nc2c1 [BSG17, N-(9-(3,4-Difluoro-benzylamino)-6-(3-pyrolidin-1-yl-propionamide)-acridin-3-yl)-3-pyrrolidin-1-yl-propionamide] | 7 days | 11.6 days | 11 days | clear dose response and effects at all three dose levels | about 5 | – | – | – | –
CN(C)c1ccc(Nc2c3ccc(NC(=O)CCN4CCCC4)cc3nc3cc(NC(=O)CCN4CCCC4)ccc23)cc1 [BSG01] | – | – | – | – | – | 3.5 | 6.3 | potent in vitro inhibitory activity | cause end-to-end fusions in chromosomes
